Drawing on publication PMC8388802, “Study on the Structure-Activity Relationship of an Antimicrobial Peptide, Brevinin-2GUb, from the Skin Secretion of Hylarana guentheri” (Antibiotics, 2021), this text covers MBC, MIC and HC50 for six compounds.

SMILES strings stand for the structures. In brackets after ≈: the same amount, converted by molar mass. Where a SMILES comes first, the peptide text is derived from it. A value given as a limit tells only on which side of the number the result lay.

The subject of data set [1] is MRSA (B042 V2E1 A). It is filed as cell-based, Methicillin-resistant Staphylococcus aureus. Here is the method:
(§1) The method of antimicrobial assay is based on the Methods for Dilution Antimicrobial Susceptibility Tests for Bacteria that Grow Aerobically from the Clinical and Laboratory Standards Institute (CLSI).The antimicrobial activities of peptides were evaluated against Gram-positive bacteria S. aureus (ATCC 6538), MRSA (NCTC 12493), E. faecalis (NCTC 12493), Gram-negative bacteria E. coli (ATCC CRM 8739), K. pneumoniae (ATCC 43816), P. aeruginosa (ATCC CRM 9027), yeast C. albicans (ATCC CRM 10231) and clinical isolates MRSA (B042 V2E1 A), E. coli (ATCC BAA-2340), K. pneumoniae (ATCC BAA-1705), P. aeruginosa (B004 V2S2 B).
(§2) At the first stage of the assay, 20 μL bacteria were cultured in 100 mL Mueller Hinton Broth (MHB) or Yeast Extract–Peptone–Dextrose broth (YPD-B), respectively, and was incubated overnight. Then, microorganisms were subcultured in 20 mL fresh MHB or YPD-B to achieve cultures in the logarithmic phase (1 × 10^8 CFU/mL), which can be verified by optical density (OD) (The OD of Gram-positive bacteria is 0.23, OD of Gram-negative bacteria is 0.4, and OD of yeast is 0.15), and viable cell counts. Then, the medium was used to dilute the cultures to specific cell densities (Gram-negative and Gram-positive bacteria: 5 × 10^5 CFU/mL; yeast: 1 × 10^6 CFU/mL), which were the final concentrations of bacterial suspensions used in the assay. The peptides were dissolved in DMSO to reach a final concentration of 512 µM. A series of two-fold dilutions ranging from 512 µM to 1 µM were dosed in the 96-well plates.
(§3) Antimicrobial assays were conducted in 96-well plates, which were divided into five groups, including a negative control group (PBS), a positive control group (20 μg/mL norfloxacin for bacteria and 10 μg/mL amphotericin B for yeast), vehicle control (1% DMSO), blank control (MHB or YPD-B), and a peptide group. Each microorganism had five repetitions, and each well contained 1 µL corresponding solution and 99 µL culture. After incubation at 37 °C overnight, the absorbance of each well was tested by a microplate reader (EL808, Biolise BioTek Winooski, Minneapolis, USA) under a 550 nm wavelength. The MIC is the lowest concentration at which no bacterial growth can be observed.
(§4) The next day, 10 µL of every clear well was taken out to be cultured on a Mueller Hinton Agar (MHA) plate and incubated at 37 °C for 16–20 h. The MBC is the lowest concentration without any bacterial colonies, which means at this concentration, the peptide reduces the viability of the pathogen by more than 99.9%.

Data set [2] concerns MRSA (NCTC 12493). It is filed as cell-based, Methicillin-resistant Staphylococcus aureus. Here is the method: as §1, §2, §3, §4
The test system of data set [3] is E. coli (ATCC CRM 8739). It is filed as cell-based, Escherichia coli. Here is the method:
as §1, §2, §3, §4

The test system of data set [4] is K. pneumoniae (ATCC 43816). It is filed as cell-based, Klebsiella pneumoniae. The method, then: as §1, §2, §3, §4
Data set [5] concerns K. pneumoniae (ATCC BAA-1705). It is filed as cell-based, Klebsiella pneumoniae. The method, then:
as §1, §2, §3, §4

Data set [6] relates to horse red cells (defibrinated horse blood). Put plainly: Haemolysis assay. Type of data set: cell-based. To be noted: 2% (v/v) horse red cell suspension mixed 1:1 with peptide in PBS, 37 ℃ 2 h, absorbance 570 nm, 0.1% Triton X-100 positive control; nine replicates from three independent tests. Here is the method: The haemolysis assay was conducted on defibrinated horse blood (TCS Biosciences Ltd., Buckingham, UK), which was washed by PBS in advance. The peptides were dissolved in PBS to the concentration of 1024 μM, and a series of two-fold dilutions was made by PBS as well. A volume of different concentrations of 120 μL peptide solutions were mixed with the same volume of 2% (v/v) of horse red cell suspension gently in a 1.5 mL tube, and the complex was incubated at 37 ℃ for 2 h. PBS and 0.1% Triton X-100 with the same volume were used as the negative and positive controls, respectively. Each group had three replicates. After the incubation, 100 μL supernatant of each tube was aspirated into a new 96-well plate, and their absorbances were analysed by a microplate reader (EL808, Biolise BioTek Winooski, Minneapolis, USA) at a wavelength of 570 nm. The equation to calculate the haemolysis of the peptides is shown below. (2) […]=(A−An)/(Ap−An)×100%
A represents the absorbance of each well in the sample groups. An represents the average absorbance of the wells in the negative control group. Ap represents the average absorbance of the wells in the positive control group.

Take `CC[C@H](C)[C@H](NC(=O)[C@@H](NC(=O)CN)C(C)C)C(=O)N[C@H](C(=O)N[C@@H](CCCCN)C(=O)N[C@H](C(=O)N[C@@H](CC(C)C)C(N)=O)[C@@H](C)O)[C@@H](C)CC` [Peptide 7-tB2U-K] (H-GVIIKTL-NH2): the minimal bactericidal concentration (MBC) in data set [1], in data set [2], in data set [3], in data set [4] and in data set [5] was greater than 512 µM throughout. The MIC is greater than 512 µM in data set [1]; 256 µM (≈ 190 µg/mL) in data set [2]; greater than 512 µM in data set [3]; greater than 512 µM in data set [4]; greater than 512 µM in data set [5]. In addition, the HC50 in data set [6] is given as 11,008 μM.

On to `CC[C@H](C)[C@H](NC(=O)[C@@H](NC(=O)CN)C(C)C)C(=O)N[C@H](C(=O)N[C@@H](CCCCN)C(=O)N[C@H](C(=O)N[C@@H](CC(C)C)C(=O)N[C@@H](CCCCN)C(=O)NCC(=O)N[C@@H](C)C(=O)N[C@@H](C)C(=O)N[C@@H](CCCCN)C(=O)N[C@H](C(=O)N[C@H](C(N)=O)C(C)C)[C@@H](C)O)[C@@H](C)O)[C@@H](C)CC` [Peptide 14-tB2U-K] (H-GVIIKTLKGAAKTV-NH2), for which the MBC in data set [1], in data set [2], in data set [3], in data set [4] and in data set [5] was greater than 512 µM throughout. Moreover, the minimal inhibitory concentration (MIC) in data set [1], in data set [2], in data set [3], in data set [4] and in data set [5] was greater than 512 µM each time. The concentration for 50% haemolysis (HC50) in data set [6] is on record as 10,834 μM.

In the case of `CC[C@H](C)[C@H](NC(=O)[C@@H](NC(=O)CN)C(C)C)C(=O)N[C@H](C(=O)N[C@@H](CCCCN)C(=O)N[C@@H](CCCCN)C(=O)N[C@@H](CC(C)C)C(=O)N[C@@H](CCCCN)C(=O)NCC(=O)N[C@@H](C)C(=O)N[C@@H](C)C(=O)N[C@@H](CCCCN)C(=O)N[C@@H](CCCCN)C(=O)N[C@H](C(=O)N[C@@H](C)C(=O)N[C@@H](C)C(=O)N[C@@H](CCCCN)C(=O)N[C@@H](CC(C)C)C(=O)N[C@@H](CC(C)C)C(N)=O)C(C)C)[C@@H](C)CC` [tB2U-6K] (H-GVIIKKLKGAAKKVAAKLL-NH2), the MBC is 256 µM (≈ 499 µg/mL) in data set [1]; 128 µM (≈ 249 µg/mL) in data set [2]; 2 µM (≈ 3.9 µg/mL) in data set [3]; 32 µM (≈ 62.4 µg/mL) in data set [4]; 128 µM (≈ 249 µg/mL) in data set [5]. For the same compound, the minimum inhibitory concentration (MIC) is 256 µM (≈ 499 µg/mL) in data set [1]; 64 µM (≈ 125 µg/mL) in data set [2]; 2 µM (≈ 3.9 µg/mL) in data set [3]; 32 µM (≈ 62.4 µg/mL) in data set [4]; 128 µM (≈ 249 µg/mL) in data set [5]. The HC50 in data set [6] amounted to 6506 µM.

As for `CC[C@H](C)[C@H](NC(=O)[C@@H](NC(=O)CN)C(C)C)C(=O)N[C@H](C(=O)N[C@@H](CCCCN)C(=O)N[C@H](C(=O)N[C@@H](CC(C)C)C(=O)N[C@@H](CCCCN)C(=O)NCC(=O)N[C@@H](C)C(=O)N[C@@H](C)C(=O)N[C@@H](CCCCN)C(=O)N[C@H](C(=O)N[C@H](C(=O)N[C@@H](C)C(=O)N[C@@H](C)C(=O)N[C@@H](CCCCN)C(=O)N[C@@H](CC(C)C)C(=O)N[C@@H](CC(C)C)C(N)=O)C(C)C)[C@@H](C)O)[C@@H](C)O)[C@@H](C)CC` [tB2U-K] (H-GVIIKTLKGAAKTVAAKLL-NH2), the MBC in data set [1] was greater than 512 µM; in data set [2], 128 µM (≈ 242 µg/mL); in data set [3], 8 µM (≈ 15.2 µg/mL); in data set [4], 128 µM (≈ 242 µg/mL); in data set [5], 128 µM (≈ 242 µg/mL). For the same compound, the MIC in data set [1] was greater than 512 µM; in data set [2], 128 µM (≈ 242 µg/mL); in data set [3], 8 µM (≈ 15.2 µg/mL); in data set [4] it was 128 µM (≈ 242 µg/mL); in data set [5], 128 µM (≈ 242 µg/mL). Moreover, the concentration for 50% haemolysis (HC50) in data set [6] was 3056 µM.

Consider `CC[C@H](C)[C@H](NC(=O)[C@@H](NC(=O)CN)C(C)C)C(=O)N[C@H](C(=O)N[C@@H](CC(=O)O)C(=O)N[C@H](C(=O)N[C@@H](CC(C)C)C(=O)N[C@@H](CCCCN)C(=O)NCC(=O)N[C@@H](C)C(=O)N[C@@H](C)C(=O)N[C@@H](CCCCN)C(=O)N[C@H](C(=O)N[C@H](C(=O)N[C@@H](C)C(=O)N[C@@H](C)C(=O)N[C@@H](CCC(=O)O)C(=O)N[C@@H](CC(C)C)C(=O)N[C@@H](CC(C)C)C(N)=O)C(C)C)[C@@H](C)O)[C@@H](C)O)[C@@H](C)CC` [tB2U-α] (H-GVIIDTLKGAAKTVAAELL-NH2), for which the MBC in data set [1], in data set [2], in data set [3], in data set [4] and in data set [5] was greater than 512 µM each time. The MIC in data set [1], in data set [2], in data set [3], in data set [4] and in data set [5] was greater than 512 µM throughout. The HC50 in data set [6] is on record as 15,609 μM.

Turning to `CC[C@H](C)[C@H](NC(=O)[C@@H](NC(=O)CN)C(C)C)C(=O)N[C@H](C(=O)N[C@@H](CC(=O)O)C(=O)N[C@H](C(=O)N[C@@H](CC(C)C)C(=O)N[C@@H](CCCCN)C(=O)NCC(=O)N[C@@H](C)C(=O)N[C@@H](C)C(=O)N[C@@H](CCCCN)C(=O)N[C@H](C(=O)N[C@H](C(=O)N[C@@H](C)C(=O)N[C@@H](C)C(=O)N[C@@H](CCC(=O)O)C(=O)N[C@@H](CC(C)C)C(=O)N[C@@H](CC(C)C)C(=O)N[C@@H](CCCNC(=N)N)C(=O)N[C@@H](CCCCN)C(=O)N[C@@H](C)C(=O)N[C@@H](Cc1c[nH]cn1)C(N)=O)C(C)C)[C@@H](C)O)[C@@H](C)O)[C@@H](C)CC` [tB2U] (H-GVIIDTLKGAAKTVAAELLRKAH-NH2), the MBC in data set [1] is greater than 512 µM; in data set [2], greater than 512 µM; in data set [3], 128 µM (≈ 304 µg/mL); in data set [4], greater than 512 µM; in data set [5], greater than 512 µM. The MIC is greater than 512 µM in data set [1]; greater than 512 µM in data set [2]; 128 µM (≈ 304 µg/mL) in data set [3]; 512 µM (≈ 1220 µg/mL) in data set [4]; greater than 512 µM in data set [5]. Also, the HC50 in data set [6] was 16,393 μM.
